Legend:
Assay type in all cases: physicochemical
[1] = Polymorph screening under 32 conditions / form stability
From the text: A comprehensive polymorph screening for a TCA intermediate conjugated to an amino acid which has the structure of Formula (X) was undertaken. The TCA conjugate starting material was characterized by X-ray powder diffraction (XRPD). […] One unique XRPD patterns was observed, which was Type A. Type A is a stable Type At the ambient temperature and humidity.
(§1) For with Type A, polymorph screening experiments were set up under 32 conditions using methods of solid vapor diffusion, slurry conversion at room temperature, slurry conversion at 50° C., and temperature cycling. Polymorph screening experiments were performed using different crystallization or solid transition methods.

[2] = Solid vapor diffusion, precipitates isolated for XRPD analysis
Method: as §1
Solid vapor diffusion experiments were conducted in different solvent conditions. The precipitates were isolated for XRPD analysis.

[3] = Slurry conversion at 50° C., solids isolated for XRPD analysis
Method: as §1
(§2) Slurry conversion experiments were conducted at room temperate and at 50° C. in different solvent systems. Solids were isolated for XRPD analysis.

[4] = Slurry conversion at room temperature, solids isolated for XRPD analysis
Method: as §1, §2

[5] = Temperature cycling polymorph screening; conditions: summary of 6 experiments
Method: as §1

## N[C@@H](COC(=O)CCC(=O)O)C(=O)O [Type A]
[1]; ambient temperature and humidity
  Stability of the crystal form: stable
[1]; total, all 32 screening experiments
  Crystal Type: Type A, Type A + peak
[2]; anti-solvent Acetone (exp. 818135-06-A5)
  Solid Form: Type A
[2]; anti-solvent DCM (exp. 818135-06-A1)
  Solid Form: Type A
[2]; anti-solvent DMSO (exp. 818135-06-A4)
  Solid Form: Type A
[2]; anti-solvent EtOH (exp. 818135-06-A2)
  Solid Form: Type A
[2]; anti-solvent H2O (exp. 818135-06-A6)
  Solid Form: Type A
[2]; anti-solvent THF (exp. 818135-06-A3)
  Solid Form: Type A
[2]; summary of 6 experiments
  Crystal Type: Type A
[3]; slurry at 50° C., 1,4-dioxane (exp. 818135-05-A6)
  Solid Form: Type A
[3]; slurry at 50° C., 2-Me THF (exp. 818135-05-A3)
  Solid Form: Type A
[3]; slurry at 50° C., CHCL3 (exp. 818135-05-A7)
  Solid Form: Type A
[3]; slurry at 50° C., EtOAc (exp. 818135-05-A2)
  Solid Form: Type A
[3]; slurry at 50° C., EtOH (exp. 818135-05-A1)
  Solid Form: Type A
[3]; slurry at 50° C., MEK (exp. 818135-05-A5)
  Solid Form: Type A
[3]; slurry at 50° C., Toluene (exp. 818135-05-A9)
  Solid Form: Type A
[3]; slurry at 50° C., n-heptane (exp. 818135-05-A4)
  Solid Form: Type A + peak
[3]; slurry at 50° C., summary of 9 experiments
  Crystal Type: Type A, Type A + peak
[4]; Acetone (exp. 818135-04-A2)
  Solid Form: Type A
[4]; CAN (exp. 818135-04-A5)
  Solid Form: Type A + peak
[4]; DCM (exp. 818135-04-A6)
  Solid Form: Type A + peak
[4]; H2O (exp. 818135-04-A7)
  Solid Form: Type A
[4]; IPAc (exp. 818135-04-A3)
  Solid Form: Type A + peak
[4]; MTBE (exp. 818135-04-A4)
  Solid Form: Type A + peak
[4]; MeOH (exp. 818135-04-A1)
  Solid Form: Type A
[4]; THF/H2O (0.87:0.13, aW~0.8) (exp. 818135-04-A11)
  Solid Form: Type A
[4]; THF/H2O (0.924:0.076, aW~0.6) (exp. 818135-04-A10)
  Solid Form: Type A
[4]; THF/H2O (0.956:0.044, aW~0.4) (exp. 818135-04-A9)
  Solid Form: Type A + peak
[4]; THF/H2O (0.98:0.02, aW~0.2) (exp. 818135-04-A8)
  Solid Form: Type A
[4]; summary of 11 experiments
  Crystal Type: Type A, Type A + peak
[5]
  Crystal Type: Type A, Type A + peak
